One series has as its system A549. The experiment in a line: Growth inhibition of human A549 cells. Type of series: functional.
Series [1] in a line: Metabolic stability in mouse microsomes assessed as half life. Type of series: ADME, Microsome.
The target in series [2] is Cell division cycle 7-related protein kinase (Homo sapiens, UniProt O00311). Briefly: Inhibition of CDC7-DBF4.

Some results are limits rather than exact numbers.

Cell division cycle 7-related protein kinase, sequence (O00311 whole entry): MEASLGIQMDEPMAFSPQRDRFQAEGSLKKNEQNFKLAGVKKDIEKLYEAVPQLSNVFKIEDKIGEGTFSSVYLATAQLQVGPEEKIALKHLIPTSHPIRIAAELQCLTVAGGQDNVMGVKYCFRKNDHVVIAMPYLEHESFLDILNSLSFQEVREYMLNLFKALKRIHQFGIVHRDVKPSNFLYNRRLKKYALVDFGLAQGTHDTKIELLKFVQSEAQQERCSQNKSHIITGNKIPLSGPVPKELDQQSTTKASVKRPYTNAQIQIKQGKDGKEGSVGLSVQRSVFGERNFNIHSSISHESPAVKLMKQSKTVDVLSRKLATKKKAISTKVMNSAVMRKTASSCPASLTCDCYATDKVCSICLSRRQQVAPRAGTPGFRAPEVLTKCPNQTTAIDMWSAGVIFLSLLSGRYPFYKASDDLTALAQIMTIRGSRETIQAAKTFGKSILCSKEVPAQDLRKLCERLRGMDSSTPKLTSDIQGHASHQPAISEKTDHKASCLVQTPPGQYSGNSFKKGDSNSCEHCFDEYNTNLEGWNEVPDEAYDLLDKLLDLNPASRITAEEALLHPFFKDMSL

As a reminder, the GI50 is the concentration that inhibits growth by half. Low readings indicate greater sensitivity of the cells, high ones lower sensitivity of the cells. A word on the half-life: it is the time in which the quantity being followed falls by half. The IC50 is the concentration needed to halve the response being measured. Low readings indicate higher potency, high ones lower potency. As to `O=c1nc(-c2ccc(O)cc2)cc(-c2ccccc2)[nH]1`, the GI50 in the series on A549 is over 10000 nM. Further, the half-life in series [1] turned out to be 4 min. The half-maximal inhibitory concentration (IC50) in series [2] came out at 30 nM. In turn, `O=c1nc(-c2ccc3[nH]ncc3c2)cc(-c2cccc(OCc3ccccc3)c2)[nH]1` displayed an IC50 in series [2] of 6 nM. The same measure, in the same setting: the value for `O=c1nc(-c2ccc3[nH]ncc3c2)cc(-c2ccc(OCc3ccccc3)cc2)[nH]1` was 350 nM; that for `COc1ccc(-c2cc(-c3ccnc(N(C)C)c3)nc(=O)[nH]2)c(OC)c1` was 7300 nM. Turning to `Cc1cc(-c2cc(-c3ccccc3)[nH]c(=O)n2)ccc1O`, the concentration for 50% growth inhibition (GI50) with A549 was over 10000 nM. In turn, `CCc1ccc(-c2cc(-c3ccc4n[nH]cc4c3)nc(=O)[nH]2)cc1` showed an IC50 in series [2] of 100 nM. That is a sub-micromolar value. For the compound `O=c1nc(-c2ccc3[nH]ncc3c2)cc(-c2ccc(N3CCNCC3)cc2)[nH]1`, half-maximal inhibition in series [2] (IC50) required 40 nM. This IC50 is about 2.5-fold lower than that of the compound before.

In series [2], `O=c1nc(-c2ccc3[nH]ncc3c2)cc(-c2ccccc2F)[nH]1` showed a half-maximal inhibitory concentration (IC50) of 10 nM. `O=c1nc(-c2ccc3[nH]ncc3c2)cc(-c2cccc(F)c2)[nH]1` yielded an IC50 in series [2] of 150 nM.

`O=c1nc(-c2ccc3[nH]ncc3c2)cc(-c2cccc(C(F)(F)F)c2)[nH]1` displayed an IC50 in series [2] of 110 nM. Consider `O=c1nc(-c2ccc3[nH]ncc3c2)cc(-c2cccc(Cl)c2)[nH]1`, for which the GI50 with A549 was 600 nM. In series [2], this compound gave a 50% inhibitory concentration (IC50) of 5 nM. `COc1ccc(-c2cc(-c3ccnc(N)c3)nc(=O)[nH]2)c(OC)c1` came in with an IC50 in series [2] of 1000 nM. `O=c1nc(-c2ccncc2)cc(-c2cccc(Cl)c2)[nH]1` showed an IC50 in series [2] of over 13000 nM.

The values above are taken from ChEMBL document CHEMBL1156592, “4-(1H-indazol-5-yl)-6-phenylpyrimidin-2(1H)-one analogs as potent CDC7 inhibitors” (Bioorg Med Chem Lett, 2008).
